“Also recorded” adds a separate entry of the source.
Tests used:
RPE65 [1] = target: RPE65 (Bos taurus, UniProt Q28175); assay: RPE65 activity assay in vitro; format: biochemical, bovine; conditions: for inhibition of RPE65 in vitro: concentration range 0.1-50 μM
RPE65 [2] = target: T1, RPE65 (Mus musculus, UniProt Q91ZQ5); conditions: 10 mg/kg IP; for RPE65 inhibition in vivo (in words): BALB/cJ mice; for 11cRAL level in eye / RE level in eye: four hours of dark adaptation after light exposure, mean ± SD, n=3
T1 sequence (Q91ZQ5 1-533): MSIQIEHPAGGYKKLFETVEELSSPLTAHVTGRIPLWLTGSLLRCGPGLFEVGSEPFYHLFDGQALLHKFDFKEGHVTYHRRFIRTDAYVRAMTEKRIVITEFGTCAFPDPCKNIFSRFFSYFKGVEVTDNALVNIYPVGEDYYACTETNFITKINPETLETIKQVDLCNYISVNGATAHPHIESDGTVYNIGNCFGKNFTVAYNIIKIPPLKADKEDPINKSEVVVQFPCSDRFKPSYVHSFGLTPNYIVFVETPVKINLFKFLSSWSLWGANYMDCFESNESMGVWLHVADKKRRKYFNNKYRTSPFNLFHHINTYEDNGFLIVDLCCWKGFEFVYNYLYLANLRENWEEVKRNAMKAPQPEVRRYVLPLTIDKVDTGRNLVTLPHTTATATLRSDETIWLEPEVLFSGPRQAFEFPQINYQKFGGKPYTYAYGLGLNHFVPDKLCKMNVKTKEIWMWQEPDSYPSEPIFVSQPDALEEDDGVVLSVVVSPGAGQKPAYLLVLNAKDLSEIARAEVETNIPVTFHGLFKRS

VAP-1 = target: T2, VAP-1 (Mus musculus, UniProt O70423); assay: VAP-1 oxidation assay in mouse aorta homogenates; conditions: for Concentration of 16e in mouse aorta homogenates: substrate 16e 100 μM
T2 sequence (O70423 1-765): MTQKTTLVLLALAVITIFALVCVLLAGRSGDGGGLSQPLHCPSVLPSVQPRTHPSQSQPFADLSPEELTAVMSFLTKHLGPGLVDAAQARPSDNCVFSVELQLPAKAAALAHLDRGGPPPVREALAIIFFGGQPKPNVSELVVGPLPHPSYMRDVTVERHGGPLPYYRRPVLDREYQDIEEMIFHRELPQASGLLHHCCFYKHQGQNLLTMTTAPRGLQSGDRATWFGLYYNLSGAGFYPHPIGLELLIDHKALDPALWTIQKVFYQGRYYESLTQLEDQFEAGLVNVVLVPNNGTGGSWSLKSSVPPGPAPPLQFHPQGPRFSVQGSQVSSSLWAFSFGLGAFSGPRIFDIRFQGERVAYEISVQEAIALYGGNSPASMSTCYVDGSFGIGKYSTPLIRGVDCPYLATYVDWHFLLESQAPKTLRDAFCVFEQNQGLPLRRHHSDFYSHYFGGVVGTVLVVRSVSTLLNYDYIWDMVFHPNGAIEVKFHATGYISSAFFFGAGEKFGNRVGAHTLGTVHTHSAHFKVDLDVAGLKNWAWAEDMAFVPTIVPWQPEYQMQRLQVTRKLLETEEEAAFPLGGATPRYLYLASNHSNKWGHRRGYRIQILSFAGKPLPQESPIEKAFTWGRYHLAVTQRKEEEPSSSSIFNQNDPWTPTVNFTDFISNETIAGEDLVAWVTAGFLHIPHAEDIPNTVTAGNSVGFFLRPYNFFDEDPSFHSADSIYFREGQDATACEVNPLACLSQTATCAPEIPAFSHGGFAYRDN

CYP-450 enzymes = assay: Liver microsomes assay
in vivo = conditions: C57BL/6J, mouse, serum, intraperitoneal, 10 mg/kg

Chain of RPE65 (Bos taurus, UniProt Q28175) (Q28175 whole entry): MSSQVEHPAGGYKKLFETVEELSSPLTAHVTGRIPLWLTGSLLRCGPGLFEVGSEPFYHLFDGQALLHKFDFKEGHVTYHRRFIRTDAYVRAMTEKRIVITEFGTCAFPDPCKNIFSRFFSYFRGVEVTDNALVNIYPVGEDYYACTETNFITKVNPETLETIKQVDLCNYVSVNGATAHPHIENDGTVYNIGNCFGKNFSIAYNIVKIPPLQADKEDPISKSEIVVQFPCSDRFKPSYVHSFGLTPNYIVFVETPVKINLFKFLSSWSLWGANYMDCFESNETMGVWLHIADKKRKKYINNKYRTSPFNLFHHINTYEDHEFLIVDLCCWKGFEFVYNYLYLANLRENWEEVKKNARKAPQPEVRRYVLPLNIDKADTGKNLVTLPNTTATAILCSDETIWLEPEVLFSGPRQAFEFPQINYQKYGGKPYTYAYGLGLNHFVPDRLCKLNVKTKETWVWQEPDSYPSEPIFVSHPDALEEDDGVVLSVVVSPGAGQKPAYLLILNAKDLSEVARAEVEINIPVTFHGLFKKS

NC(CCO)c1cccc(OCC2CCCCC2)c1 (stereo not shown) [6a, 3-Amino-3-(3-(cyclohexylmethoxy)phenyl)propan-1-ol]
inhibition of RPE65 in vitro (RPE65 [1]): lack of inhibitory activity; also recorded: no inhibition

NC(CO)Cc1cccc(OCC2CCCCC2)c1 (stereo not shown) [6b, 2-Amino-3-(3-(cyclohexylmethoxy)phenyl)propan-1-ol]
inhibition of RPE65 in vitro (RPE65 [1]): no inhibition

NC(CO)Cc1ccc(OCC2CCCCC2)cc1 (stereo not shown) [6c, 2-Amino-3-(4-(cyclohexylmethoxy)phenyl)propan-1-ol]
inhibition of RPE65 in vitro (RPE65 [1]): lack of dose-response relationship

NCCc1cccc(OCC2CCCCC2)c1 [11b, 2-(3-(Cyclohexylmethoxy)phenyl)ethan-1-amine]
potency towards RPE65 relative to amine 11a (RPE65 [1]; ratio of IC50 values): 7.6 times | RPE65 inhibition in vivo (in words) (RPE65 [2]): did not display hallmarks of inhibited RPE65 activity

CC(CCN)c1cccc(OCC2CCCCC2)c1 (stereo not shown) [16b, 3-(3-(Cyclohexylmethoxy)phenyl)butan-1-amine]
RPE65 inhibition in vivo (in words) (RPE65 [2]): minor RPE65 inhibition | non-specific toxicity observation (RPE65 [2]; all animals, even 24 hours after treatment): impaired body movement | 11cRAL level in eye (RPE65 [2]): 253.5 ± 9.0 pmol/eye | RE level in eye (RPE65 [2]): 85.6 ± 12.7 pmol/eye

CC(CN)Cc1cccc(OCC2CCCCC2)c1 (stereo not shown) [16c, (3-(Cyclohexylmethoxy)phenyl)-2-methylpropan-1-amine]
RPE65 inhibition in vivo (in words) (RPE65 [2]): minor RPE65 inhibition | 11cRAL level in eye (RPE65 [2]): 370.5 ± 9.1 pmol/eye | RE level in eye (RPE65 [2]): 123.9 ± 36.4 pmol/eye

CNCCC(O)c1cccc(OCC2CCCCC2)c1 (stereo not shown) [16e, 1-(3-(Cyclohexylmethoxy)phenyl)-3-(methylamino)propan-1-ol]
Concentration of 16e in mouse aorta homogenates (VAP-1; time 0): 100.32 ± 0.95 µM | Concentration of 16e in mouse aorta homogenates (VAP-1; time 1): 101.20 ± 0.89 µM | hepatic clearance relative to 3a (CYP-450 enzymes; Cint ratio): 5.5 times | rate of liver metabolism relative to 3a (CYP-450 enzymes; Vmax ratio): 1.7 times | demethylation to 3a in liver microsomes (CYP-450 enzymes; one-hour exposure, 200 μM): minor amount of demethylation | concentration at 24 h (in vivo): 0 nM | 11cRAL per eye as % of the dark adapted (DA) level (RPE65 [2]; 24 hours post treatment): 53% | RPE65 inhibition in vivo (in words) (RPE65 [2]): potent RPE65 inhibition

O=CC=Cc1cccc(OCC2CCCCC2)c1 [ACU-5201]
Concentration of deaminated product ACU-5201 in mouse aorta homogenates (VAP-1; formed from substrate 3a, time 0): 0.00 ± 0.00 µM | Concentration of deaminated product ACU-5201 in mouse aorta homogenates (VAP-1; formed from substrate 3a, time 1): 19.71 ± 0.29 µM | Concentration of deaminated product ACU-5201 in mouse aorta homogenates (VAP-1; formed from substrate 3a, time 4): 54.81 ± 6.38 µM | Concentration of deaminated product ACU-5201 in mouse aorta homogenates (VAP-1; formed from substrate 16e, time 1): 0.48 ± 0.68 µM | Concentration of deaminated product ACU-5201 in mouse aorta homogenates (VAP-1; formed from substrate 16e, time 4): 3.76 ± 0.29 µM
